The values below come from patent publication US20130261045A1, “GREEN TEA POLYPHENOL ALPHA SECRETASE ENHANCERS AND METHODS OF USE” (UNIVERSITY OF SOUTH FLORIDA, priority 2005, published 2013).

This test relates to ADAM10. Description: Western blot of ADAM10 maturation in primary murine microglial cultures. It is filed as cell-based. The following applies: various doses, 8 h. In general terms: A western blot detects proteins with antibodies after separation by electrophoresis.

Method: Cultured cells were lysed in ice-cold lysis buffer described above, and an aliquot corresponding to 50 μg of total protein was electrophoretically separated using 16.5% Tris-tricine gels. Electrophoresed proteins were then transferred to PVDF membranes (Bio-Rad, Richmond, Calif.), washed in ddH2O, and blocked for 1 h at ambient temperature in Tris-buffered saline (TBS; Bio-Rad) containing 5% (w/v) non-fat dry milk. After blocking, membranes were hybridized for 1 h at ambient temperature with various primary antibodies. Membranes were then washed 3 times for 5 min each in ddH2O and incubated for 1 h at ambient temperature with the appropriate HRP-conjugated secondary antibody (1:1,000, Pierce Biotechnology, Inc. Rockford, Ill.). All antibodies were diluted in TBS containing 5% (w/v) of non-fat dry milk. Blots were developed using the luminol reagent (Pierce Biotechnology). Densitometric analysis was done using the Fluor-S MultiImager™ with Quantity One™ software (Bio-Rad). […] Antibodies used for Western blot included: antibody 369 (which recognizes the carboxyl-terminus of APP; 1:1,500), clone 22C11 (against the amino-terminus of APP; 1:1,500), clone 6E10 (against amino acids 1-17 of Aβ; 1:1,500), anti-ADAM9 (1:500), and antibodies against ADAM10 (1:500), ADAM17 (1:500) or actin (1:1,500; as an internal reference control). […]

`O=C(O[C@@H]1Cc2c(O)cc(O)cc2O[C@@H]1c1cc(O)c(O)c(O)c1)c1cc(O)c(O)c(O)c1` [EGCG, (−)-epigallocatechin-3-gallate]: the “mature ADAM10” value is “dose-dependent increases”.
